For assay [1], the system named is uterus, ovary and breast tumour cell lines. The assay can be described thus: Antiproliferative activity on uterus, ovary and breast tumour cell lines. It is filed as cell-based. As to conditions: result in words. Here is the method: (§1) The evaluation of the estrogen receptor binding has been carried out on tumour cells of ovary and other organs. Cells were growth in a monolayer culture on the minimum essential medium added with calf serum and with 200 units/ml of penicillin to maintain the medium sterile. In order to make the tests reproducible, the cells were trypsinated every week and placed on plates at a density of […] and incubated at 37° C. under air atmosphere containing 5% CO2 and humidity. […] After 24 hours the substrate was replaced with fresh substrate and the chalcones dissolved in absolute ethanol were added. […] The treatment described above was repeated at 24 hours time intervals during the 72 hours time of the test. […] At the end of the incubation time, the cells were quickly washed with fresh substrate and incubated for 30 minutes with 1M NaOH. The radioactivity was measured by means of a scintiller and the binding specificity was calculated as the difference between the preparations containing or not diethylstilbestrol. The results are expressed as the number of binding sites per cell, according to conventional methods. The inhibition on the cell proliferation is evaluated by direct count of the cells comparing the growth of the controls versus that of the treated.

In assay [2] the test system is estrogen receptors of type II. As to the kind of experiment: Binding affinity to estrogen receptors of type II (displacement of labelled estradiol in tumour cells). As to conditions: for IC50: read-out: IC50 *** Concentration giving a 50% displacement of labelled estradiol (40 nM) from the receptor, labelled estradiol 40 nM; for affinity to estrogen receptors of type II: result in words. As to the method: as §1

The next assay relates to OVCA 433 cancer cells. The assay can be described thus: Antiproliferative activity on OVCA 433 cancer cells in vitro (direct cell count). As to conditions: read-out: IC50 ** Concentration giving a 50% inhibition on cell proliferation. It is filed as cell-based. As to the method:
as §1

The target of assay [3] is estrogen receptors of type II. The following applies: read-out: apparent affinity dissociation constant KD for estradiol; type II sites, rat uterus; cited from earlier work.
The test system of the next assay is human leukemia cells. As to conditions: result in words; cited from earlier work.
The mark [4] stands for this setting: OVCA433, OVCA 433 cancer cells in vitro, 72 hours test.

Molecules are shown by their SMILES. Where two headings read alike, the source gives them in different places.

On to `COc1ccc(C(=O)/C=C/c2cccc(O)c2)c(O)c1CC=C(C)C` [Chalcone S4, 3-hydroxyderricin], for which the “antiproliferative activity on uterus, ovary and breast tumour cell lines” value (“antiproliferative activity on uterus” below) in assay [1] is “marked antiproliferative activity”. Further, in assay [2], the IC50 turned out to be 12.1 µM and the “affinity to estrogen receptors of type II” value (“affinity” for short) is listed as “remarkable affinity”. Besides, in the assay on OVCA 433 cancer cells (setting [4]), the IC50 was 5 µM.
With `COc1ccc(C(=O)/C=C/c2ccc(O)cc2)c(O)c1CC=C(C)C` [Chalcone S2, 4-hydroxyderricin], the “antiproliferative activity on uterus” value in assay [1] is “marked antiproliferative activity”. Further, in assay [2], the IC50 is 10.6 µM and the “affinity” value is “remarkable affinity”. Also, the IC50 with OVCA 433 cancer cells (setting [4]) was found to be 17 µM.
For `COc1ccc(C(=O)/C=C/c2ccccc2O)c(O)c1CC=C(C)C` [Chalcone S3, 2-hydroxyderricin], in that order: “marked antiproliferative activity”, 18 µM, “remarkable affinity” and 4.2 µM.
Turning to `C[C@]12CC[C@@H]3c4ccc(O)cc4CC[C@H]3[C@@H]1CC[C@@H]2O` [estradiol], in assay [3], the Kd is 0.01 to 0.02 µM.
Regarding `CC(C)=CCOc1ccc(C(=O)CCc2ccccc2)c(O)c1` [Chalcone S9, Dihydrocordoin, reference compound], the “affinity” value in assay [2] is “no affinity”.
For the compound `O=C(/C=C/c1ccccc1)c1ccc(O)cc1O` [Chalcone S5, 2',4'-dihydroxychalcone], the “antiproliferative activity on uterus” value in assay [1] was “marked antiproliferative activity”. Further, the IC50 in assay [2] came out at 0.6 µM; in the assay with OVCA 433 cancer cells (setting [4]), 2.5 µM. The “affinity” value in assay [2] is reported as “remarkable affinity”.
Regarding `O=C(/C=C/c1ccc(O)cc1)c1ccc(O)cc1O` [Chalcone S6, 4,2',4'-trihydroxychalcone], in assay [1], the “antiproliferative activity on uterus” value was “marked antiproliferative activity”. In assay [2], the IC50 was 3.2 µM and the “affinity” value is reported as “remarkable affinity”. For the same compound, in the assay on OVCA 433 cancer cells (OVCA433, 72 h), the IC50 amounted to 5 µM.
Regarding `CC(C)=CCOc1ccc(C(=O)/C=C/c2ccc(O)cc2)c(O)c1` [Chalcone S8, 4-hydroxycordoin, reference compound], the “affinity” value in assay [2] is listed as “no affinity”.
For `CC(C)=CCOc1ccc(C(=O)/C=C/c2ccccc2)c(O)c1` [Chalcone S7, Cordoin], in assay [1], the “antiproliferative activity on uterus” value is “marked antiproliferative activity”. For the same compound, in assay [2], the IC50 is 4.2 µM and the “affinity” value was “remarkable affinity”. Besides, the IC50 in the assay with OVCA 433 cancer cells (setting [4]) was 6 µM.
`O=c1c(O)c(-c2ccc(O)c(O)c2)oc2cc(O)cc(O)c12` [quercetin]: in the assay with human leukemia cells, the “inhibiting activity on the proliferation of human leukemia cells” value is “some inhibiting activity”.
On to `CC(C)=CCc1c(O)ccc(C(=O)/C=C/c2ccccc2)c1O` [Chalcone S1, Isocordoin], for which the “antiproliferative activity on uterus” value in assay [1] is reported as “marked antiproliferative activity”. In assay [2], the IC50 was found to be 1.2 µM and the “affinity” value is listed as “remarkable affinity”. Also, the IC50 in the assay with OVCA 433 cancer cells (setting [4]) was determined as 1.2 µM.

The values above are taken from patent US5808137A, “Chalcones and esters thereof with antiproliferative activity in uterus, ovary and breast tumors” (Indena S.p.A., priority 1994, dated 1998).
